According to patent US20260158194A1, “DRUG COATED BALLOON” (ARTERIUS LIMITED, priority 2021, published 2026):

What was measured:
[1] = Drug release profile of spray-coated balloons, PBS then methanol elution, UV (Example 4); format: physicochemical
Procedure: The technique of spray coating was introduced using a 5% solution of high molecular weight polymer PEG-PPO-PEG (Mn=14,600) in methanol. This spray coating method was used to add multiple layers of coating and ensured the correct area of the balloon was coated in a more precise fashion.
In this example, a set of experiments was conducted to assess the drug release profiles of Sirolimus and Dipyridamole. The samples were spray coated with their coating solutions with nitrogen gas at 1 bar, and 20 rotations were done (10 clockwise and 10 anticlockwise). The separation from the balloon and spray nozzle was approximately 15 cm.
The drug release profiles of both Dipyridamole and Sirolimus were determined using an excipient polymer PEG-PPO-PEG (Mn=14,600) with organic carrier solvent methanol. The coating solution quantities can be found in Table 3.
The resulting coated balloons were eluted in 8 mL of PBS for 3 minutes, before being eluted into 8 mL of methanol for 5 minutes, for full release of the coating.

[2] = Simulated tracking and deployment (ASTM F3320-18) into hydrogel mock-vessel (Examples 14-17); format: physicochemical; conditions: single drug
Procedure: In this example, a hydrogel was used to mimic the arterial tissue wall to assess the drug release profile and simulate the tracking and deployment process.
Based on the process described in ASTM F3320-18, folded balloons were pushed through a 37° C. heated anatomical model filled with PBS for 30 seconds. At the end of the track, balloons were then inflated to nominal pressure inside the hydrogel for 1 minute. The PBS inside the track was collected and replaced, and the balloon withdrawn back through the track. The PBS in the track was collected, and the coated balloon was inflated to nominal pressure for a final drug release in methanol for 5 minutes. The drug concentration in the two PBS samples and methanol sample was measured by UV-VIS. This was used to calculate the drug dose delivered to the hydrogel site.
In this example, the drug release profiles of balloons dip coated with methanol solutions containing 20% excipient Pluronic F108 and 8% of either dipyridamole or sirolimus were assessed. After coating, the balloons were dried and folded.
In this example, balloons were spray coated with a methanol solution containing 1% excipient Pluronic F108, and 2% of either dipyridamole or sirolimus. After drying and folding the balloons were sterilised.

Question: Which results are given for `OCCN(CCO)c1nc(N2CCCCC2)c2nc(N(CCO)CCO)nc(N3CCCCC3)c2n1` [dipyridamole]?
Answer: Post-PBS reading @415 nm ([1]; 8 mL PBS 3 minutes, spray coated, PEG-PPO-PEG Mn 14,600): 0.042; Post-Methanol reading @415 nm ([1]; 8 mL methanol 5 minutes after PBS elution): 0.087; drug released during elution time ([1]; printed '5-minute elution time', from UV reading and calibration coefficient, PEG-PPO-PEG polymer): 32.6%; drug lost when tracking to the site ([2]; dip coated, 20% Pluronic F108 and 8% drug): considerably less dipyridamole than sirolimus was lost; loaded drug released during deployment to the hydrogel target site ([2]; spray coated, 1% Pluronic F108 and 2% drug, sterilised): 71.1%
